According to PubChem BioAssay AID2060894 (Molecular Pharmacology Branch, DTP, NCI, 2025):
pIC50: −log10 of the molar value.

System: K12877-001-R-J1-PDC complex spheroid viability
Experiment: Anticancer human tumor K12877-001-R-J1-PDC patient-derived lung adenocarcinoma cell line growth inhibition [RAS]
Conditions: for pIC50: curve of first compound; for viability, T/C: stronger effect = lower value
How it was run: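 Multi-cell-type spheroids: tumor cells plus HUVEC endothelial cells and mesenchymal stem cells. RAS-pathway inhibitors were combined with targeted agents, each dosed in half-log steps down from clinical Cmax, or from 10 microM when Cmax was unknown.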
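Note: spheroids exposed to agents for one week before readout.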
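Throughout, for viability, T/C: tumour cells co-cultured with HUVEC and mesenchymal stem cells in spheroids.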

## C=CC(=O)N1CCN(c2nc(OCC3CCCN3C)nc3c(F)c(-c4nc(N)cc(C)c4C(F)(F)F)c(Cl)cc23)C(C)C1 (centres undefined) + CCn1c(-c2cccnc2C(C)OC)c2c3cc(ccc31)N1CCOC(CC(NC(=O)C(C(C)C)N(C)C(=O)C3(F)CCN(C(=O)C#CC(C)(C)N(C)C)CC3)C(=O)N3CCCC(N3)C(=O)OCC(C)(C)C2)C1
Second compound 0.000949 µM
  pIC50: < 6.00
Second compound 0.003 µM
  pIC50: < 6.00
Second compound 0.00949 µM
  pIC50: < 6.00
Second compound 0.03 µM
  pIC50: < 6.00
Second compound 0.0949 µM
  pIC50: < 6.00
Second compound 0.3 µM
  pIC50: < 6.00
Second compound 0.000949 µM, first compound 0.00316 µM
  viability, T/C: 82%
Second compound 0.000949 µM, first compound 0.01 µM
  viability, T/C: 83%
Second compound 0.000949 µM, first compound 0.0316 µM
  viability, T/C: 83.5%
Second compound 0.000949 µM, first compound 0.1 µM
  viability, T/C: 74.2%
Second compound 0.000949 µM, first compound 0.316 µM
  viability, T/C: 76%
Second compound 0.000949 µM, first compound 1 µM
  viability, T/C: 77.8%
Second compound 0.003 µM, first compound 0.00316 µM
  viability, T/C: 78%
Second compound 0.003 µM, first compound 0.01 µM
  viability, T/C: 61.3%
Second compound 0.003 µM, first compound 0.0316 µM
  viability, T/C: 73.6%
Second compound 0.003 µM, first compound 0.1 µM
  viability, T/C: 81.1%
Second compound 0.003 µM, first compound 0.316 µM
  viability, T/C: 86%
Second compound 0.003 µM, first compound 1 µM
  viability, T/C: 71.1%
Second compound 0.00949 µM, first compound 0.00316 µM
  viability, T/C: 75.4%
Second compound 0.00949 µM, first compound 0.01 µM
  viability, T/C: 83.9%
Second compound 0.00949 µM, first compound 0.0316 µM
  viability, T/C: 77.5%
Second compound 0.00949 µM, first compound 0.1 µM
  viability, T/C: 85.3%
Second compound 0.00949 µM, first compound 0.316 µM
  viability, T/C: 85.5%
Second compound 0.00949 µM, first compound 1 µM
  viability, T/C: 78.6%
Second compound 0.03 µM, first compound 0.00316 µM
  viability, T/C: 77.4%
Second compound 0.03 µM, first compound 0.01 µM
  viability, T/C: 76.1%
Second compound 0.03 µM, first compound 0.0316 µM
  viability, T/C: 77.6%
Second compound 0.03 µM, first compound 0.1 µM
  viability, T/C: 75.9%
Second compound 0.03 µM, first compound 0.316 µM
  viability, T/C: 81.7%
Second compound 0.03 µM, first compound 1 µM
  viability, T/C: 73.3%
Second compound 0.0949 µM, first compound 0.00316 µM
  viability, T/C: 83.4%
Second compound 0.0949 µM, first compound 0.01 µM
  viability, T/C: 70.5%
Second compound 0.0949 µM, first compound 0.0316 µM
  viability, T/C: 79.7%
Second compound 0.0949 µM, first compound 0.1 µM
  viability, T/C: 76.1%
Second compound 0.0949 µM, first compound 0.316 µM
  viability, T/C: 73.8%
Second compound 0.0949 µM, first compound 1 µM
  viability, T/C: 72.8%
Second compound 0.3 µM, first compound 0.00316 µM
  viability, T/C: 58.1%
Second compound 0.3 µM, first compound 0.01 µM
  viability, T/C: 67%
Second compound 0.3 µM, first compound 0.0316 µM
  viability, T/C: 66.3%
Second compound 0.3 µM, first compound 0.1 µM
  viability, T/C: 68.5%
Second compound 0.3 µM, first compound 0.316 µM
  viability, T/C: 70%
Second compound 0.3 µM, first compound 1 µM
  viability, T/C: 66.8%

## CC1(C)CCC(Nc2ncc(C(F)(F)F)c(-c3c[nH]c4c(P(C)(C)=O)c(C#N)ccc34)n2)CN1 (centres undefined) + CCn1c(-c2cccnc2C(C)OC)c2c3cc(ccc31)N1CCOC(CC(NC(=O)C(C(C)C)N(C)C(=O)C3(F)CCN(C(=O)C#CC(C)(C)N(C)C)CC3)C(=O)N3CCCC(N3)C(=O)OCC(C)(C)C2)C1
Second compound 0.000949 µM
  pIC50: 7.77
Second compound 0.003 µM
  pIC50: 7.82
Second compound 0.00949 µM
  pIC50: 7.88
Second compound 0.03 µM
  pIC50: 7.80
Second compound 0.0949 µM
  pIC50: 7.86
Second compound 0.3 µM
  pIC50: 7.96
Second compound 0.000949 µM, first compound 0.000949 µM
  viability, T/C: 88.3%
Second compound 0.000949 µM, first compound 0.003 µM
  viability, T/C: 79%
Second compound 0.000949 µM, first compound 0.00949 µM
  viability, T/C: 63.7%
Second compound 0.000949 µM, first compound 0.03 µM
  viability, T/C: 36.4%
Second compound 0.000949 µM, first compound 0.0949 µM
  viability, T/C: 24.2%
Second compound 0.000949 µM, first compound 0.3 µM
  viability, T/C: 18.5%
Second compound 0.003 µM, first compound 0.000949 µM
  viability, T/C: 80.2%
Second compound 0.003 µM, first compound 0.003 µM
  viability, T/C: 81%
Second compound 0.003 µM, first compound 0.00949 µM
  viability, T/C: 57.8%
Second compound 0.003 µM, first compound 0.03 µM
  viability, T/C: 35.9%
Second compound 0.003 µM, first compound 0.0949 µM
  viability, T/C: 24.9%
Second compound 0.003 µM, first compound 0.3 µM
  viability, T/C: 18%
Second compound 0.00949 µM, first compound 0.000949 µM
  viability, T/C: 74.1%
Second compound 0.00949 µM, first compound 0.003 µM
  viability, T/C: 71.8%
Second compound 0.00949 µM, first compound 0.00949 µM
  viability, T/C: 55.3%
Second compound 0.00949 µM, first compound 0.03 µM
  viability, T/C: 35.1%
Second compound 0.00949 µM, first compound 0.0949 µM
  viability, T/C: 22.7%
Second compound 0.00949 µM, first compound 0.3 µM
  viability, T/C: 17.1%
Second compound 0.03 µM, first compound 0.000949 µM
  viability, T/C: 74.7%
Second compound 0.03 µM, first compound 0.003 µM
  viability, T/C: 73.7%
Second compound 0.03 µM, first compound 0.00949 µM
  viability, T/C: 63.8%
Second compound 0.03 µM, first compound 0.03 µM
  viability, T/C: 33%
Second compound 0.03 µM, first compound 0.0949 µM
  viability, T/C: 20.9%
Second compound 0.03 µM, first compound 0.3 µM
  viability, T/C: 19%
Second compound 0.0949 µM, first compound 0.000949 µM
  viability, T/C: 72.8%
Second compound 0.0949 µM, first compound 0.003 µM
  viability, T/C: 66.1%
Second compound 0.0949 µM, first compound 0.00949 µM
  viability, T/C: 58.4%
Second compound 0.0949 µM, first compound 0.03 µM
  viability, T/C: 34.7%
Second compound 0.0949 µM, first compound 0.0949 µM
  viability, T/C: 21.8%
Second compound 0.0949 µM, first compound 0.3 µM
  viability, T/C: 18%
Second compound 0.3 µM, first compound 0.000949 µM
  viability, T/C: 69.1%
Second compound 0.3 µM, first compound 0.003 µM
  viability, T/C: 63.7%
Second compound 0.3 µM, first compound 0.00949 µM
  viability, T/C: 53.9%
Second compound 0.3 µM, first compound 0.03 µM
  viability, T/C: 29.6%
Second compound 0.3 µM, first compound 0.0949 µM
  viability, T/C: 19%
Second compound 0.3 µM, first compound 0.3 µM
  viability, T/C: 14.8%
